Source: US20100222396A1 (Novartis AG, priority 2009, published 2010)

How the values were obtained:
[1] = molecular target: T1, human orexin 1 receptor (hOx1R) (Homo sapiens, UniProt O43613); assay: Radioligand binding assay ([125I]orexin A competition), hOx1R; settings: CHO or HEK cell membranes, 1 h room temperature
T1 construct: expressed in transfected cells
T1 sequence (O43613 1-425): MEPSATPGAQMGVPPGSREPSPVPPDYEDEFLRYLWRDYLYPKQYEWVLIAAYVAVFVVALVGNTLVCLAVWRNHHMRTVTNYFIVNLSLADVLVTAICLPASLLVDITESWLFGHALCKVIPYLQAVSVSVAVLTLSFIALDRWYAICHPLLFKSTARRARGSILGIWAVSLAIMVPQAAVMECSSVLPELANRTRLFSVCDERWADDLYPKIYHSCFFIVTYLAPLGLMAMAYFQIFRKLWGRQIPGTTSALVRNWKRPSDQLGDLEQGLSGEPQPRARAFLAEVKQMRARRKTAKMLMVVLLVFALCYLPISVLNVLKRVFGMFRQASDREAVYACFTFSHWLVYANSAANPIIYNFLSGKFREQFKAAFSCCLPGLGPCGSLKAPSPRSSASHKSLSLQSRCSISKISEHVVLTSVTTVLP
Procedure: (§1) For crude cell membrane preparations, cells (CHO, Chinese hamster ovary or HEK, human embryonic kidney) expressing human orexin 1 or human orexin 2 receptors, were washed with HEPES (10 mM, pH 7.5), scraped off the culture plates with the same buffer, and centrifuged at 4° C. for 5 min at 2500×g. The cell pellet was either stored at −80° C. or used directly. Before the experiments, cell membranes were re-suspended in binding assay buffer (10 mM HEPES, 0.5% (w/v) bovine serum albumin, pH 7.5) by homogenisation with a Polytron homogeniser at 50 Hz for 20 s. Cell membranes were also used as made available by commercial providers.
(§2) In initial saturation experiments (to calculate Bmax), cell homogenates (150 μl) were incubated with 25-300 pM of the radioligand ([^125I]orexin A, 50 μl), 8 concentrations in triplicates in the presence or absence Orexin A (1 μM, 50 μl) to define non specific binding. Bound radioactivity was measured, and data were analysed with the program XLFIT or Graphpad Prism. Protein concentration was determined according to the Bradford/BioRad Protein Assay Kit.
(§3) In competition experiments, cell homogenates (150 μl) were incubated in assay buffer (10 mM HEPES, pH 7.5, 0.5% (w/v) bovine serum albumin, 5 mM MgCl2, […], and tween 0.05%) for 1 h at room temperature with about […] of the radioligand ([^125I]orexin A, 2100 Ci/mmole, 50 μl), and with various concentrations of compounds of the invention (50 μl) in triplicates; non-specific binding was determined in the presence of Orexin A (1 μM). Reactions were terminated by vacuum filtration, 3 washes of ice cold wash buffer (Tris-HCl pH 7.4/10 mM, with NaCl 154 mM). Competition data is expressed in Table 1 as Kd [μM].

[2] = molecular target: T2, human orexin 2 receptor (hOx2R) (Homo sapiens, UniProt O43614); assay: Radioligand binding assay ([125I]orexin A competition), hOx2R; settings: CHO or HEK cell membranes, 1 h room temperature
T2 construct: expressed in transfected cells
T2 sequence (O43614 1-444): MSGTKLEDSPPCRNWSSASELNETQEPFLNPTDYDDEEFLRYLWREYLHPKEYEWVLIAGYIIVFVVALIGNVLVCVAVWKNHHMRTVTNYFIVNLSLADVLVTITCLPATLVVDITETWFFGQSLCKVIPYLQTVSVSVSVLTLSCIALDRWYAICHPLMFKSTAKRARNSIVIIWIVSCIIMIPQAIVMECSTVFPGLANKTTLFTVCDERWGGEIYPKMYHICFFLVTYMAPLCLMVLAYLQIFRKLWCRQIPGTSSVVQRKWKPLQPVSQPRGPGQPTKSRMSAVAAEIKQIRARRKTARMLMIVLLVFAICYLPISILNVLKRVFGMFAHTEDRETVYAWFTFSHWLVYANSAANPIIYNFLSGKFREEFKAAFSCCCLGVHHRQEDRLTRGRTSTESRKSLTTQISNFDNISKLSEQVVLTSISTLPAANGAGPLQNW
Procedure: as §1, §2, §3

[3] = molecular target: T2, human orexin 2 receptor (hOx2R); assay: Calcium accumulation in cells (FLIPR), antagonism of orexin A, hOx2R; assay type: cell-based; settings: cells expressing human orexin 2 receptor; IC50 vs orexin A converted by Cheng and Prusoff correction
Outline: (§4)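 Serum-starved receptor-expressing cells were loaded with Fluo-4-AM (2 μM) plus probenecid (0.1 mM) in HEPES buffer, pH 7.4, with 1% BSA, and Ca2+ fluorescence was read on FLIPR. Compounds (10^−9–10^−5 M) were added first, and orexin A was added one hour later to measure antagonism.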

[4] = molecular target: T1, human orexin 1 receptor (hOx1R); assay: Calcium accumulation in cells (FLIPR), antagonism of orexin A, hOx1R; assay type: cell-based; settings: for Kd: cells expressing human orexin 1 receptor, IC50 vs orexin A converted by Cheng and Prusoff correction; for inhibition at 10 µM: measured at a concentration of 10 μM of compound (cells marked ^a)
Outline: as §4

| Compound | Kd [1] [nM] | Kd [2] [nM] | Kd [3] [nM] | Kd [4] [nM] | inhibition at 10 µM [4] [%] |
| --- | --- | --- | --- | --- | --- |
| Cc1cc(C)cc(C(=O)N(C)[C@H](CCNC(=O)c2cccn2C)Cc2ccccc2)c1 [Example 125, 1-Methyl-1H-pyrrole-2-carboxylic acid {(S)-3-[(3,5-dimethyl-benzoyl)-methyl-amino]-4-phenyl-butyl}-amide] | 176 | 7 | 2 | 230 | – |
| C[C@H](CNC(=O)c1ccccn1)[C@H](Cc1ccccc1)N(C)C(=O)c1ccccc1 [Example 112, Pyridine-2-carboxylic acid [(2R,3S)-3-(benzoyl-methyl-amino)-2-methyl-4-phenyl-butyl]-amide] | 477 | 1160 | 498 | 415 | – |
| CCOc1cccc(C(=O)N(C)[C@H](CCNC(=O)c2cccn2C)Cc2ccccc2)c1 [Example 121, 1-Methyl-1H-pyrrole-2-carboxylic acid {(S)-3-[(3-ethoxy-benzoyl)-methyl-amino]-4-phenyl-butyl}-amide] | 206 | 8 | 2 | 696 | – |
| CN1CCc2cc(C(=O)N(C)[C@H](CCNC(=O)c3ccccn3)Cc3ccccc3)ccc21 [Example 55, 1-Methyl-2,3-dihydro-1H-indole-5-carboxylic acid {(S)-1-benzyl-3-[(pyridine-2-carbonyl)-amino]-propyl}-methyl-amide] | 75 | 1760 | 1290 | 1640 | – |
| CN(C(=O)c1ccc2c(c1)OCO2)[C@H](CCNC(=O)c1ccccn1)Cc1ccc(Cl)cc1 [Example 25, Pyridine-2-carboxylic acid [(S)-3-[(benzo[1,3]dioxole-5-carbonyl)-methyl-amino]-4-(4-chloro-phenyl)-butyl]-amide] | 2220 | 308 | 36 | 1000 | – |
| COc1cc(F)cc(C(=O)N(C)[C@H](CCNC(=O)c2cccn2C)Cc2ccccc2)c1 [Example 105, 1-Methyl-1H-pyrrole-2-carboxylic acid {(S)-3-[(3-fluoro-5-methoxy-benzoyl)-methyl-amino]-4-phenyl-butyl}-amide] | 286 | 12 | 7 | 811 | – |
| CN(C(=O)c1cc(C(F)(F)F)cc(C(F)(F)F)c1)C(CCNC(=O)c1ccc2c(ccn2C)c1)Cc1ccccc1 (stereo not shown) [Example 60, 1-Methyl-1H-indole-5-carboxylic acid {3-[(3,5-bis-trifluoromethyl-benzoyl)-methyl-amino]-4-phenyl-butyl}-amide] | 17500 | 3860 | 362 | 3470 | – |
| CN(C(=O)c1ccc2c(c1)OCO2)[C@H](CCNC(=O)c1nc2ccccc2n1C)Cc1ccccc1 [Example 31, 1-Methyl-1H-benzoimidazole-2-carboxylic acid {(S)-3-[(benzo[1,3]dioxole-5-carbonyl)-methyl-amino]-4-phenyl-butyl}-amide] | 164 | 410 | 43 | 57 | – |
| COc1cc(OC)cc(C(=O)N(C)[C@H](CCNC(=O)c2ccccn2)Cc2ccccc2)c1 [Example 41, Pyridine-2-carboxylic acid {(S)-3-[(3,5-dimethoxy-benzoyl)-methyl-amino]-4-phenyl-butyl}-amide] | 1730 | 484 | 196 | 1600 | – |
| CN(C(=O)c1ccc2c(c1)CCN2)[C@H](CCNC(=O)c1ccccn1)Cc1ccccc1 [Example 23, 2,3-Dihydro-1H-indole-5-carboxylic acid {(S)-1-benzyl-3-[(pyridine-2-carbonyl)-amino]-propyl}-methyl-amide] | 52 | 265 | 419 | 152 | – |
| CN(C(=O)c1ccccc1)[C@H](CCNC(=O)c1cccc2c1OCO2)Cc1ccccc1 [Example 32, Benzo[1,3]dioxole-4-carboxylic acid [(S)-3-(benzoyl-methyl-amino)-4-phenyl-butyl]-amide] | > 10000 | 435 | 67 | – | 24 |
| CN(C(=O)c1ccc2ccccc2c1)[C@H](CCNC(=O)c1nc2ccccc2n1C)Cc1ccccc1 [Example 44, 1-Methyl-1H-benzoimidazole-2-carboxylic acid {(S)-3-[methyl-(naphthalene-2-carbonyl)-amino]-4-phenyl-butyl}-amide] | 82 | 781 | 90 | 33 | – |
| CN(C(=O)c1cccc(C(F)(F)F)c1)[C@H](CCNC(=O)c1ccccn1)Cc1ccccc1 [Example 4, Pyridine-2-carboxylic acid {(S)-3-[methyl-(3-trifluoromethyl-benzoyl)-amino]-4-phenyl-butyl}-amide] | 112 | 14 | 44 | 173 | – |
| CN(C(=O)c1ccccc1)[C@H](CCNC(=O)c1nc2ccccc2n1C)Cc1ccccc1 [Example 48, 1-Methyl-1H-benzoimidazole-2-carboxylic acid [(S)-3-(benzoyl-methyl-amino)-4-phenyl-butyl]-amide] | 2820 | 940 | 84 | 868 | – |
| CN(C(=O)c1cccc2ccccc12)[C@H](CCNC(=O)c1ccccn1)Cc1ccc(F)cc1 [Example 28, Pyridine-2-carboxylic acid {(8)-4-(4-fluoro-phenyl)-3-[methyl-(naphthalene-1-carbonyl)-amino]-butyl}-amide] | 579 | 371 | 4 | 28 | – |
| CCCCC(=O)NCCC(Cc1ccccc1)N(C)C(=O)c1cc(C(F)(F)F)cc(C(F)(F)F)c1 (stereo not shown) [Example 39, N-(1-Benzyl-3-pentanoylamino-propyl)-N-methyl-3,5-bis-trifluoromethyl-benzamide] | > 10000 | 610 | 419 | – | 0 |
| COc1cccc(C(=O)N(C)[C@H](CCNC(=O)c2ccccn2)Cc2ccccc2)c1 [Example 52, Pyridine-2-carboxylic acid {(S)-3-[(3-methoxy-benzoyl)-methyl-amino]-4-phenyl-butyl}-amide] | 2420 | 963 | 916 | 466 | – |
| CN(C(=O)c1cc(C(F)(F)F)cc(C(F)(F)F)c1)[C@H](CCNC(=O)c1ccccn1)Cc1ccccc1 [Example 5, Pyridine-2-carboxylic acid {(S)-3-[(3,5-bis-trifluoromethyl-benzoyl)-methyl-amino]-4-phenyl-butyl}-amide] | 999 | 18 | 8 | 511 | – |
| CN(C(=O)c1ccccc1)[C@H](CCNC(=O)c1ccc2c(c1)OCO2)Cc1ccccc1 [Example 93, Benzo[1,3]dioxole-5-carboxylic acid [(S)-3-(benzoyl-methyl-amino)-4-phenyl-butyl]-amide] | 3110 | 114 | 164 | – | 30 |
